As a reminder, the IC50 is the concentration needed to halve the response being measured. A lower IC50 goes with inhibition by little substance.

This is an account of results in paper PMC3394403 (2011).

The data set addresses P-glycoprotein (P-gp, ABCB1, MDR1) (Homo sapiens, UniProt P08183). Nature of the data set: inhibition of […]-IAAP photoaffinity labeling of P-gp in crude membranes. Type of data set: binding.

Chain of P-glycoprotein (P-gp, ABCB1, MDR1) (P08183 whole entry): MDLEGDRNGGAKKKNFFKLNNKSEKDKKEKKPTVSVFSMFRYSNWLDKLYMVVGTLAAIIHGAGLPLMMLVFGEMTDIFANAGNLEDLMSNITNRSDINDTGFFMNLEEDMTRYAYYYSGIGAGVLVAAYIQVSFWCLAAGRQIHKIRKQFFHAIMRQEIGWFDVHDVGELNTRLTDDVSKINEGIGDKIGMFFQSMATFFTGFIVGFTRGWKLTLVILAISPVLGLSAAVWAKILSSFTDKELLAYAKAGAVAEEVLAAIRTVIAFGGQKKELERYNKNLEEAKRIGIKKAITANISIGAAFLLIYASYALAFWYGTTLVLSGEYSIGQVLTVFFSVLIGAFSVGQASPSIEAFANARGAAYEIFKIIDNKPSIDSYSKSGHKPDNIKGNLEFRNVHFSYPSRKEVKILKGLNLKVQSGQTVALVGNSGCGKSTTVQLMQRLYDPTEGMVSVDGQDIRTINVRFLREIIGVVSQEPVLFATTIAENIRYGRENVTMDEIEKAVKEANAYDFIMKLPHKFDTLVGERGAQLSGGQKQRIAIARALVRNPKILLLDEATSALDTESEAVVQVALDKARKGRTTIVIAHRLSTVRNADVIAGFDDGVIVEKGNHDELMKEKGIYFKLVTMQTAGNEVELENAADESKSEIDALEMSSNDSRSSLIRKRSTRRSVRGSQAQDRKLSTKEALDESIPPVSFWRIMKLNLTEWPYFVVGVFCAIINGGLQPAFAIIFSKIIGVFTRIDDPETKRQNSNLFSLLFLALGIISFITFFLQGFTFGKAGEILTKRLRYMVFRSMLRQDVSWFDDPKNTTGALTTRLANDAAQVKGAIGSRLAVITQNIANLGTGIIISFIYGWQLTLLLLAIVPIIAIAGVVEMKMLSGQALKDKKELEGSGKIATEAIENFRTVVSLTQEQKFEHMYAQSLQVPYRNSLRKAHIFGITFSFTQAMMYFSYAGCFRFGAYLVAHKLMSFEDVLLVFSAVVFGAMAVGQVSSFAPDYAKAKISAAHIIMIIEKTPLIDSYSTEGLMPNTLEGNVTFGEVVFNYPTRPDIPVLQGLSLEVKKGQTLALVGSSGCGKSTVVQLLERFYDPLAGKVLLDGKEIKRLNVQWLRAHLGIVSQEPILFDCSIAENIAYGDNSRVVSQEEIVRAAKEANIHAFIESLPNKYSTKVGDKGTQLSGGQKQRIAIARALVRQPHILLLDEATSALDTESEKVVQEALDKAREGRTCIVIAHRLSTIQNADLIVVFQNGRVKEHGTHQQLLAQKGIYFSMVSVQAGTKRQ

The molecule `C=C(C)/C=C/C[C@@H](C)[C@H]1CC[C@@]2(C)[C@@H]3[C@@H](O)C=C4[C@@H](CC[C@H](O)C4(C)C)[C@]3(C=O)CC[C@]12C` [kuguacin J] came in with an IC50 of 8.3 ± 5.4 µM.
